Source: ChEMBL document CHEMBL1201862, “PubChem BioAssay data set” (2004)
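Each compound was tested at five concentrations against cells in 96-well plates for 48 hours. Here, GI50 denotes the concentration required for 50% inhibition of growth.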 Calls of active or inactive are those of the source. Rule as the data show it: active = GI50 up to about 1.1 µM and inactive = higher.

Legend:
Test in all cases: NCI anticancer screen, dose series, 48 h
MCF7 = system: MCF7
SK-OV-3 = system: SK-OV-3
OVCAR-3 = system: OVCAR-3
HCT-15 = system: HCT-15
OVCAR-5 = system: OVCAR-5
RXF 393 = system: RXF 393
MOLT-4 = system: MOLT-4
M14 = system: M14
MDA-N = system: MDA-N
NCI-H460 = system: NCI-H460
ACHN = system: ACHN
COLO 205 = system: COLO 205
SW-620 = system: SW-620
IGROV-1 = system: IGROV-1
MDA-MB-231 = system: MDA-MB-231
HL-60 = system: HL-60
SR = system: SR
NCI-H522 = system: NCI-H522
SNB-19 = system: SNB-19
SK-MEL-2 = system: SK-MEL-2

Measured: GI50

CCCCc1ccc(C#CC#Cc2ccc(CCCC)s2)s1
> 100 µM: HCT-15
inactive: MCF7 > 100 µM | SK-OV-3 > 100 µM | OVCAR-3 > 100 µM | OVCAR-5 > 100 µM | RXF 393 > 100 µM | MOLT-4 > 100 µM | M14 > 100 µM | MDA-N > 100 µM | NCI-H460 > 100 µM | ACHN > 100 µM | COLO 205 > 100 µM | SW-620 > 100 µM | IGROV-1 > 100 µM | MDA-MB-231 > 100 µM | HL-60 24.8 µM | SR > 100 µM | NCI-H522 > 100 µM

COc1ccc(C(CC(=O)c2ccccc2)C(=O)c2ccc3c(c2)OCO3)cc1 (centres undefined)
> 100 µM: HCT-15
inactive: MCF7 > 100 µM | SK-OV-3 > 100 µM | MOLT-4 > 100 µM | M14 > 100 µM | MDA-N > 100 µM | NCI-H460 > 100 µM | ACHN > 100 µM | COLO 205 > 100 µM | SW-620 > 100 µM | SNB-19 > 100 µM | IGROV-1 > 100 µM | MDA-MB-231 > 100 µM | SK-MEL-2 > 100 µM | HL-60 > 100 µM | SR > 100 µM

Cc1n[nH]c(=O)n1N1C(=O)c2ccccc2C1=O
inactive: MCF7 > 100 µM | OVCAR-3 > 100 µM | OVCAR-5 > 100 µM | MOLT-4 > 100 µM | M14 > 100 µM | MDA-N > 100 µM | NCI-H460 > 100 µM | ACHN > 100 µM | COLO 205 > 100 µM | SW-620 > 100 µM | SNB-19 > 100 µM | IGROV-1 > 100 µM | MDA-MB-231 > 100 µM | SK-MEL-2 > 100 µM | SR > 100 µM
> 100 µM: HCT-15

CC(C)(C)C1CCC2c3c([nH]c4ccccc34)C3C(=O)N(c4cccc([N+](=O)[O-])c4)C(=O)C3C2C1 (centres undefined)
inactive: MCF7 32.5 µM | SK-OV-3 > 100 µM | OVCAR-3 35.6 µM | OVCAR-5 52.2 µM | RXF 393 54 µM | MOLT-4 6.84 µM | M14 37.6 µM | MDA-N 18.2 µM | NCI-H460 13.6 µM | ACHN 36.2 µM | COLO 205 21.2 µM | SW-620 57.8 µM | SNB-19 55.8 µM | IGROV-1 19.8 µM | MDA-MB-231 30.5 µM | SK-MEL-2 24.5 µM | SR 18.2 µM | NCI-H522 14.6 µM
37.1 µM: HCT-15

CCCCSC1=N/C(=C\c2ccco2)C(=O)N1
active: MCF7 0.687 µM
inactive: SK-OV-3 > 100 µM | OVCAR-3 48.4 µM | OVCAR-5 > 100 µM | RXF 393 12.1 µM | MOLT-4 36.1 µM | M14 53.8 µM | MDA-N 42.4 µM | NCI-H460 39.5 µM | ACHN > 100 µM | COLO 205 26.1 µM | SW-620 35.8 µM | SNB-19 63.8 µM | IGROV-1 36.6 µM | MDA-MB-231 99.8 µM | SK-MEL-2 54.8 µM | HL-60 18.2 µM | NCI-H522 28.9 µM
34.6 µM: HCT-15

CCC(c1ccccc1)c1cc(C(C)(C)C)cc(C(C)(C)C)c1O (centres undefined)
16.8 µM: HCT-15
inactive: MCF7 20.1 µM | SK-OV-3 14.9 µM | OVCAR-3 14.2 µM | OVCAR-5 13.7 µM | RXF 393 20 µM | M14 18.6 µM | MDA-N 17.1 µM | NCI-H460 17.5 µM | ACHN 18.6 µM | COLO 205 18.7 µM | SW-620 16.5 µM | SNB-19 18.3 µM | IGROV-1 17 µM | MDA-MB-231 18.1 µM | SK-MEL-2 15.7 µM | SR 31.7 µM | NCI-H522 13.7 µM

CCCCCCCCCCCCCCCCC(=O)NCC(=O)NCC(=O)NC(Cc1ccccc1)C(=O)Oc1ccc([N+](=O)[O-])cc1 (centres undefined)
inactive: MCF7 48.4 µM | OVCAR-3 > 100 µM | OVCAR-5 27.5 µM | RXF 393 23.4 µM | MOLT-4 16.4 µM | M14 21.4 µM | MDA-N 48.5 µM | NCI-H460 18.3 µM | ACHN > 100 µM | COLO 205 20.2 µM | SW-620 19.4 µM | SNB-19 > 10 µM | IGROV-1 > 100 µM | MDA-MB-231 23.4 µM | SK-MEL-2 48.4 µM | HL-60 50 µM | SR 25 µM | NCI-H522 26.7 µM
19.1 µM: HCT-15

CC1(C)CNC(c2ccc3c(c2)Cc2cc(C4=NC(C)(C)CN4)ccc2-3)=N1
> 100 µM: HCT-15
inactive: MCF7 23.3 µM | SK-OV-3 44.5 µM | OVCAR-3 35.7 µM | OVCAR-5 > 100 µM | RXF 393 > 100 µM | MOLT-4 31.9 µM | M14 45.1 µM | MDA-N 39.8 µM | NCI-H460 30.8 µM | ACHN > 100 µM | COLO 205 28.2 µM | SW-620 34.5 µM | SNB-19 35.1 µM | IGROV-1 > 100 µM | MDA-MB-231 39.1 µM | SK-MEL-2 20.1 µM | SR 32.5 µM | NCI-H522 29.9 µM
